The values that follow come from the RepoRT retention time repository.

Counter-ions that a name gives are not always drawn.

A short description of this data set: RP, Restek Raptor Biphenyl, 100 × 2.1 mm, 2.7 µm, 50 °C, 0.4 mL/min, estimated dead time 0.55 min; A: water + 0.1% formic acid, pH 3; B: methanol + 0.1% formic acid, pH 3; gradient (min/%B) 0/5 1.12/5 6.41/99.5 10.01/99.5. Conditions: stereoisomer not certain.

In the case of `CCc1ccc(C(=O)NN(C(=O)c2cc(C)cc(C)c2)C(C)(C)C)cc1` [Tebufenozide], the LC retention time was 6.04 min.

Consider `O=C(O)CC(CC(=O)O)C(=O)O` [Tricarballylic acid], for which the LC retention time was 0.842 min.

In the case of `Cn1c(=O)c2[nH]cnc2n(C)c1=O` [THEOPHYLLINE], the LC retention time was 3.54 min.

`CC=C(C)C(=O)NCC(=O)O` [Tiglyl Glycine]: the LC retention time is 2.95 min.

In the case of `O=S(=O)(O)Oc1c[nH]c2ccccc12` [INDOXYL SULFATE], the LC retention time was 2.52 min.

Regarding `CCCCCCCCCCCCCCCCCCC[n+]1cccc(S(=O)(=O)[O-])c1` [C19-APS], the LC retention time is 6.61 min.

For `CCCCCCCCCC(O)CC(=O)OC(CC(=O)[O-])C[N+](C)(C)C` [[(3R)-3-Hydroxydodecanoyl]-L-carnitine], the LC retention time is 5.15 min.

Turning to `CC1(C)CCC(Cc2ccc(Cl)cc2)C1(O)Cn1cncn1` (stereo unspecified) [Metconazole], the LC retention time was 6.09 min.

Turning to `O=C(O)CCc1c[nH]c2ccccc12` [Indole-3-propionic acid], the LC retention time was 4.66 min.

Take `O=C(O)Cc1ccc(O)cc1` [4-Hydroxyphenylacetic acid]: the LC retention time was 3.02 min.

Consider `CC(CCC(=O)O)C1CCC2C3C(=O)CC4CC(O)CCC4(C)C3CCC12C` (stereo unspecified) [Nutriacholic Acid], for which the LC retention time is 6.42 min.

`O=[N+]([O-])c1cc(C(F)(F)F)c(Cl)c([N+](=O)[O-])c1Nc1ncc(C(F)(F)F)cc1Cl` [Fluazinam]: the LC retention time is 6.33 min.

With `CC(C)=CC(=O)NCC(=O)O` [3-Methylcrotonyl Glycine], the LC retention time was 2.95 min.

Take `CC(C)CCCCCCCCCCCCCCCC(=O)O` [17-Methylstearic acid]: the LC retention time is 6.7 min.

Regarding `CCC(Oc1ccc(F)c(C(F)(F)F)c1)C(=O)NCc1ccccc1` (stereo unspecified) [Beflubutamid], the LC retention time was 5.9 min.

On to `CC12CCC(=O)C=C1CCC1C2C(O)CC2(C)C(C(=O)CO)CCC12` (stereo unspecified) [Corticosterone], for which the LC retention time is 6.21 min.

Take `O=C(O)c1ccc[nH]1` [PYRROLE-2-CARBOXYLATE]: the LC retention time was 3.3 min.

As to `O=C(Nc1ccccc1)Nc1cnns1` [Thidiazuron], the LC retention time was 4.75 min.

For `NC(Cc1ccc(O)cc1)C(=O)O` (stereo unspecified) [TYROSINE], the LC retention time was 0.796 min.

On to `O=C(O)CCC(O)CC(=O)O` (stereo unspecified) [3-Hydroxyhexanedioic Acid], for which the LC retention time was 0.954 min.

Turning to `CC(C(=O)O)C(O)(CC(=O)O)C(=O)O` (racemic) [Trisodium 2-methylcitrate, racemic mixture of diastereomers], the LC retention time was 1.03 min.

For the compound `CCCCCCCCCCCCCCCCCCCC[n+]1cccc(S(=O)(=O)[O-])c1` [C20-APS], the LC retention time was 6.67 min.

As for `CCCCCCCCCCCCCCCCCCC(=O)O` [Nonadecanoic acid], the LC retention time is 6.72 min.

Turning to `O=C(O)CCC(=O)C(=O)O` [α-Ketoglutaric acid], the LC retention time is 0.722 min.

Regarding `OCCc1c[nH]c2ccccc12` [INDOLE-3-ETHANOL], the LC retention time is 4.06 min.

Take `CC(=O)C1CCC2C3CC=C4CC(OS(=O)(=O)O)CCC4(C)C3CCC12C` (stereo unspecified) [PREGNENOLONE SULFATE]: the LC retention time was 6.51 min.

As for `CCCCCCC(O)CC=CCCCCCCCC(=O)O` (stereo unspecified) [Ricinoleic acid], the LC retention time was 6.18 min.

Turning to `O=C(O)CCCCCCCC(=O)O` [Azelaic acid], the LC retention time is 4.48 min.

`OC(c1ccc(Cl)cc1)(c1cncnc1)c1ccccc1Cl` (stereo unspecified) [Fenarimol]: the LC retention time was 6.02 min.

For `CCCCCCCCCCCCCCCCC[n+]1cccc(S(=O)(=O)[O-])c1` [C17-APS], the LC retention time was 6.44 min.

For `Cc1cc2nc3c(=O)[nH]c(=O)nc-3n(CC(O)C(O)C(O)COP(=O)(O)OP(=O)(O)OCC3OC(n4cnc5c(N)ncnc54)C(O)C3O)c2cc1C` (stereo unspecified) [FAD], the LC retention time is 4.07 min.

Take `CCCCC(O)(Cn1cncn1)c1ccc(Cl)cc1Cl` (stereo unspecified) [Hexaconazole]: the LC retention time is 5.98 min.

Regarding `CC(CCC(=O)NCCS(=O)(=O)O)C1CCC2C3CCC4CC(O)CCC4(C)C3CC(O)C12C` (stereo unspecified) [Taurodeoxycholic acid], the LC retention time was 6.16 min.

Consider `O=C(O)c1ccc(C(=O)O)o1` [2,5-Furandicarboxylic acid], for which the LC retention time is 1.51 min.

Turning to `Cc1cc(C(F)(C(F)(F)F)C(F)(F)F)ccc1NC(=O)c1cccc(I)c1C(=O)NC(C)(C)CS(C)(=O)=O` [Flubendiamide], the LC retention time is 5.97 min.

On to `COc1ccc2[nH]cc(CCNC(C)=O)c2c1` [MELATONIN], for which the LC retention time is 4.57 min.

In the case of `Cn1c(=O)[nH]c2ncn(C)c2c1=O` [PARAXANTHINE], the LC retention time is 3.54 min.

Consider `O=C(O)C(O)c1ccccc1` (stereo unspecified) [MANDELATE], for which the LC retention time is 2.98 min.

For `CSc1ncnc2nc[nH]c12` [THIOPURINE S-METHYLETHER], the LC retention time is 3.77 min.

Take `CCCCCCCCC=CCCCCCCCCCCCCCC(=O)O` [Nervonic acid]: the LC retention time is 6.93 min.

As to `O=c1ccn(C2CC(O)C(CO)O2)c(=O)[nH]1` (stereo unspecified) [DEOXYURIDINE], the LC retention time was 1.22 min.

On to `CC(CCC(=O)NCC(=O)O)C1CCC2C3CCC4CC(O)CCC4(C)C3CCC12C` (stereo unspecified) [Glycolithocholic acid], for which the LC retention time is 6.37 min.

Turning to `COc1cc(CC(O)C(=O)O)ccc1O` (racemic) [DL-Vanillactic acid lithium salt hydrate], the LC retention time was 3.04 min.

Consider `CCCCCCCCCC=CC(=O)OC(CC(=O)[O-])C[N+](C)(C)C` [trans-2-Dodecenoyl-L-carnitine], for which the LC retention time is 5.46 min.

`NC(=O)Cc1c[nH]c2ccccc12` [INDOLE-3-ACETAMIDE]: the LC retention time is 3.75 min.

For `CCCCCCSCC(NC(=O)CCC(N)C(=O)O)C(=O)NCC(=O)O` (stereo unspecified) [S-HEXYL-GLUTATHIONE], the LC retention time is 4.59 min.

As to `NCC(=O)CCC(=O)O` [5-AMINOLEVULINATE], the LC retention time is 1.05 min.

`Cc1nn(-c2cc(NS(C)(=O)=O)c(Cl)cc2Cl)c(=O)n1C(F)F` [Sulfentrazone]: the LC retention time was 5.29 min.

For the compound `CC1=C(C(=O)Nc2ccccc2)SCCO1` [Carboxin], the LC retention time is 5.79 min.

With `Cc1c(=O)c(=O)c2c3c[nH]c4c(C)c(=O)c(=O)c(c5c[nH]c1c52)c43` [MELANIN], the LC retention time is 5.67 min.

On to `CCCCCCCCCCCCCCCCCCCCC(=O)O` [Heneicosanoic acid], for which the LC retention time is 6.82 min.

With `O=c1ccn(C2CC(O)C(COP(=O)(O)O)O2)c(=O)[nH]1` (stereo unspecified) [DEOXYURIDINE-MONOPHOSPHATE], the LC retention time was 0.695 min.

Take `O=C(O)CCCCCCCCC(=O)O` [SEBACATE]: the LC retention time was 4.87 min.

Consider `CCCCCCCCCCCCCCCCC(=O)O` [Heptadecanoic acid], for which the LC retention time was 6.6 min.

For `O=C1CCCCO1` [5-VALEROLACTONE], the LC retention time was 2.44 min.

Regarding `O=C(O)c1cc(=O)c2cccc(O)c2[nH]1` [Xanthurenic acid], the LC retention time is 3.14 min.

Take `CCCCCCCCCCCCC[n+]1cccc(S(=O)(=O)[O-])c1` [C13-APS]: the LC retention time is 5.95 min.

Take `C=CCC(C)C(=O)O` (stereo unspecified) [2-Methyl-4-pentenoic acid]: the LC retention time is 3.16 min.

Take `CC(=O)NC(Cc1c[nH]c2ccccc12)C(=O)O` (stereo unspecified) [N-ACETYLTRYPTOPHAN]: the LC retention time is 4.12 min.

As for `O=C(O)CNC(=O)C=Cc1ccccc1` [N-(CINNAMOYL)GLYCINE], the LC retention time is 4.42 min.

Take `CC(CCC(=O)O)C1CCC2C3C(=O)CC4CC(=O)CCC4(C)C3CC(=O)C12C` (stereo unspecified) [Dehydrocholic acid]: the LC retention time was 6.13 min.

Take `O=C(O)C=Cc1c[nH]c2ccccc12` [3-Indoleacrylic acid]: the LC retention time was 4.71 min.

With `C#CCCCCCCCCCCCCCCCC(=O)O` [17-Octadecynoic acid], the LC retention time is 6.53 min.

Regarding `O=C(Nc1ccccc1)Nc1ccnc(Cl)c1` [Forchlorfenuron], the LC retention time is 5.17 min.

With `CCCCCCCCCCCCCCCCCCCCCC(=O)O` [Behenic acid], the LC retention time is 6.86 min.

Consider `N[C@@H](Cc1ccc(O)c(O)c1)C(=O)O` [L-DOPA], for which the LC retention time was 0.702 min.

Regarding `CN(C)C(=O)Nc1cccc(C(F)(F)F)c1` [Fluometuron], the LC retention time is 4.92 min.

For the compound `CC(O)(CC(=O)O)CC(=O)O` [3-Hydroxy-3-methylglutaric acid], the LC retention time is 1.01 min.

With `O=c1[nH]c2c(c(=O)n1C1CCCCC1)CCC2` [Lenacil], the LC retention time is 5.48 min.

Consider `CCCCCCCCCCCCCCCCCC(=O)O` [Stearic acid], for which the LC retention time was 6.67 min.

Take `c1ncc2[nH]cnc2n1` [PURINE]: the LC retention time was 1.29 min.

For `Cc1ccn2nc(S(=O)(=O)Nc3c(F)cccc3F)nc2n1` [Flumetsulam], the LC retention time is 4.92 min.

Take `O=C(O)c1cc(O)ccc1O` [2,5-DIHYDROXYBENZOATE]: the LC retention time was 2.57 min.

With `O=Cc1ccccc1` [BENZALDEHYDE], the LC retention time is 2.98 min.

For the compound `Nc1ncnc2c1ncn2C1CC(O)C(COP(=O)(O)O)O1` (stereo unspecified) [DEOXYADENOSINE MONOPHOSPHATE], the LC retention time is 0.818 min.

In the case of `CCC(C)C(=O)NCC(=O)O` (stereo unspecified) [N-(2-Methylbutyryl)glycine], the LC retention time was 2.83 min.

For `O=C(O)CCCCC(O)CC(=O)O` (stereo unspecified) [3-Hydroxysuberic Acid], the LC retention time was 2.74 min.

Take `Cc1cn(C2CC(O)C(COP(=O)(O)OP(=O)(O)OC3OC(CO)C(O)C(O)C3O)O2)c(=O)[nH]c1=O` [DTDP-D-GLUCOSE]: the LC retention time is 0.702 min.

As for `CCCCCCCCCCCCCCCC[n+]1cccc(S(=O)(=O)[O-])c1` [C16-APS], the LC retention time was 6.34 min.

As to `CCCCCC=CCC=CCC=CCCCCC(=O)O` [γ-Linolenic acid], the LC retention time is 6.54 min.

For `O=C(O)CC(O)(CC(=O)O)C(=O)O` [Citric acid], the LC retention time is 0.743 min.
